Data on 3 compounds can be found in patent US10350187B2, “Methods and composition for suppression of pathogenic bacterial growth, fungal growth, or microbial growth in or on skin” (priority 2017, dated 2019).

Experiment [1] relates to M. restricta MYA-4611. In words: M. restricta growth in liquid MLNB media (Example 3). In kind it is cell-based. On the procedure:
(§1) At appropriate time intervals (0 h, 24 h, 48 h, 72 h, and 168 h) 1 mL aliquots of the cell suspension were withdrawn and plated on MLNA. All the experiments were performed in duplicate.

Experiment [2] deals with M. globosa. In words: M. globosa growth on solid media with composition and individual component supplementation (Example 3). The settings on record: individual component supplementation, after 5 days.
Experiment [3] relates to M. globosa. In words: M. globosa growth in liquid MLNB media (Example 3). The class given is cell-based. How it is done:
as §1

Experiment [4] concerns M. restricta MYA-4611. In words: M. restricta growth on solid media with composition and individual component supplementation (Example 3). The settings on record: individual component supplementation, after 5 days.

`N[C@@H](CC(=O)O)C(=O)O` [L-Asp, L-aspartic acid]: the “M. restricta growth in liquid MLNB media” value is reported as 15 cfu/mL in the experiment with M. restricta MYA-4611 [1] (0.46% L-Asp, t = 24 h); 11 cfu/mL with M. restricta MYA-4611 [1] (0.46% L-Asp, t = 48 h); 10 cfu/mL in the experiment with M. restricta MYA-4611 [1] (0.46% L-Asp, t = 72 h); 14 cfu/mL in the experiment on M. restricta MYA-4611 [1] (0.46% L-Asp, t = 168 h). For the same compound, the “growth on solid media” value with M. globosa [2] (0.46% L-Asp) and in the experiment on M. restricta MYA-4611 [4] (0.46% L-Asp) was “support some growth” in each case. Also, the “M. globosa growth in liquid MLNB media” value is 14 cfu/mL with M. globosa [3] (0.46% L-Asp, t = 24 h); 10 cfu/mL in the experiment on M. globosa [3] (0.46% L-Asp, t = 48 h); 6 cfu/mL in the experiment on M. globosa [3] (0.46% L-Asp, t = 72 h); 1 cfu/mL in the experiment on M. globosa [3] (0.46% L-Asp, t = 168 h).
Regarding `NC(=O)c1cccnc1` [Niacinamide, niacinamide, reference compound], the “M. restricta growth in liquid MLNB media” value in the experiment on M. restricta MYA-4611 [1] (0.5% Niacinamide, t = 24 h) is 20 cfu/mL; in the experiment with M. restricta MYA-4611 [1] (0.5% Niacinamide, t = 48 h) it was 5 cfu/mL; in the experiment with M. restricta MYA-4611 [1] (0.5% Niacinamide, t = 72 h), 0 cfu/mL; in the experiment with M. restricta MYA-4611 [1] (0.5% Niacinamide, t = 168 h) it was 0 cfu/mL. Further, the “growth on solid media” value in the experiment on M. globosa [2] (0.5% niacinamide) and with M. restricta MYA-4611 [4] (0.5% niacinamide) was “support some growth” throughout. The “M. globosa growth in liquid MLNB media” value in the experiment on M. globosa [3] (0.5% Niacinamide, t = 24 h) amounted to 2 cfu/mL; in the experiment with M. globosa [3] (0.5% Niacinamide, t = 48 h) it was 0 cfu/mL; in the experiment with M. globosa [3] (0.5% Niacinamide, t = 72 h) it was 0 cfu/mL; in the experiment on M. globosa [3] (0.5% Niacinamide, t = 168 h), 0 cfu/mL.
As to conjugated linoleic acid [CLA], the “M. restricta growth in liquid MLNB media” value came to 7 cfu/mL in the experiment on M. restricta MYA-4611 [1] (1.5% CLA, t = 24 h); 0 cfu/mL in the experiment with M. restricta MYA-4611 [1] (1.5% CLA, t = 48 h); 0 cfu/mL in the experiment with M. restricta MYA-4611 [1] (1.5% CLA, t = 72 h); 0 cfu/mL in the experiment on M. restricta MYA-4611 [1] (1.5% CLA, t = 168 h). The “growth on solid media” value in the experiment on M. globosa [2] (1.5% CLA) and in the experiment on M. restricta MYA-4611 [4] (1.5% CLA) was “support some growth” in each case. Further, the “M. globosa growth in liquid MLNB media” value in the experiment on M. globosa [3] (1.5% CLA, t = 24 h) amounted to 2 cfu/mL; in the experiment on M. globosa [3] (1.5% CLA, t = 48 h), 0 cfu/mL; with M. globosa [3] (1.5% CLA, t = 72 h) it was 0 cfu/mL; in the experiment with M. globosa [3] (1.5% CLA, t = 168 h) it was 0 cfu/mL.
